Drawing on patent publication US7491819B1 (priority 2004, dated 2009), this text covers IC50 for 28 compounds.

Each structure is given as a SMILES string. pIC50: −log10 of the molar value.

For orientation: pIC50 means the IC50 on a negative log10 scale, so that one unit is a factor of ten.

This experiment addresses T1, HIV-integrase (Human immunodeficiency virus type 1 group M subtype B, UniProt P12497).
T1 construct: Recombinant integrase (0.26 ng) was incubated with the beads
Briefly: HIV-Integrase Inhibition Activity (SPA bead strand-transfer assay). Format: biochemical. The settings on record: Table 1; read-out: Activity (HIV-integrase inhibition, IC50 class). The method, then:
HIV-Integrase Inhibition Activity. To evaluate in-vitro activity against HIV-integrase, 5 pmole of biotin labeled substrate DNA was bound to 100 μg of Streptavidin coated PVT SPA beads (Amersham Pharmacia Biotech). Recombinant integrase (0.26 ng) was incubated with the beads for 90 min at 37° C. Unbound enzyme was removed by washing the complex followed by addition of inhibitors and 0.1 fmol of P33 labeled target DNA. The reaction was stopped by adding EDTA to a final concentration of 10 mM. Samples were counted in TopCountNXT (Packard) and the CPM was used as a measure of integration. The reaction condition was as described in A. Engelman and R. Craigie, J. Virol 69, 5908-5911 (1995). The sequences of substrate and target DNA were described in Nucleic Acid Research 22, 1121-1122 (1994).
For `CSc1ccc(CNC(=O)c2nc3n(c(=O)c2O)CCOC3(C)C)cc1` [Example 143, Pyrimido[2,1-c][1,4]oxazine-2-carboxamide, 4,6,7,9-tetrahydro-3-hydroxy-9,9-dimethyl-N-[[4-(methylthio)phenyl]methyl]-4-oxo-], the pIC50 is 7.00 to 8.70.
With `CC(C)(C)OC(=O)N1CCN(c2ccccc2CNC(=O)c2nc3n(c(=O)c2O)CCOC3(C)C)CC1` [Example 261, 1-piperazinecarboxylic acid, 4-[2-[[[(4,6,7,9-tetrahydro-3-hydroxy-9,9-dimethyl-4-oxopyrimido[2,1-c][1,4]oxazin-2-yl)carbonyl]amino]methyl]phenyl]-, 1,1-dimethylethyl ester] the figure was 7.00 to 8.70.
With `CC1(C)OCCn2c1nc(C(=O)NCc1ccccc1N1CCCCC1)c(O)c2=O` [Example 254, Pyrimido[2,1-c][1,4]oxazine-2-carboxamide, 4,6,7,9-tetrahydro-3-hydroxy-9,9-dimethyl-4-oxo-N-[[2-(1-piperidinyl)phenyl]methyl]-] the figure was 7.00 to 8.70.
Take `COP(=O)(OC)c1cc(F)ccc1CNC(=O)c1nc2n(c(=O)c1O)CCOC2(C)C` [Example 281, Phosphonic acid, [5-fluoro-2-[[[(4,6,7,9-tetrahydro-3-hydroxy-9,9-dimethyl-4-oxopyrimido[2,1-c][1,4]oxazin-2-yl)carbonyl]amino]methyl]phenyl]-, dimethyl ester]: the negative-log IC50 (pIC50) was 7.00 to 8.70.
As for `CC1(C)OCCn2c1nc(C(=O)NCc1ccccc1-c1ccoc1)c(O)c2=O` [Example 198, Pyrimido[2,1-c][1,4]oxazine-2-carboxamide, N-[[2-(3-furanyl)phenyl]methyl]-4,6,7,9-tetrahydro-3-hydroxy-9,9-dimethyl-4-oxo-], the pIC50 is 7.00 to 8.70.
To `CC1(C)OCCn2c1nc(C(=O)NCc1cccc3ccsc13)c(O)c2=O` [Example 138, Pyrimido[2,1-c][1,4]oxazine-2-carboxamide, N-(benzo[b]thien-7-ylmethyl)-4,6,7,9-tetrahydro-3-hydroxy-9,9-dimethyl-4-oxo-] belongs 7.00 to 8.70; to `CC1(C)OCCn2c1nc(C(=O)NCc1ccc(F)cc1N1CCCCCC1=O)c(O)c2=O` [Example 125, Pyrimido[2,1-c][1,4]oxazine-2-carboxamide, N-[[4-fluoro-2-(hexahydro-2-oxo-1H-azepin-1-yl)phenyl]methyl]-4,6,7,9-tetrahydro-3-hydroxy-9,9-dimethyl-4-oxo-], 7.00 to 8.70.
With `C[S+]([O-])c1ccccc1CNC(=O)c1nc2n(c(=O)c1O)CCOC2(C)C` (stereo not shown) [Example 113, Pyrimido[2,1-c][1,4]oxazine-2-carboxamide, 4,6,7,9-tetrahydro-3-hydroxy-9,9-dimethyl-N-[[2-(methylsulfinyl)phenyl]methyl]-4-oxo-] the figure was 7.00 to 8.70; with `COc1ccc(OC)c(CNC(=O)c2nc3n(c(=O)c2O)CCOC3(C)C)c1` [Example 235, Pyrimido[2,1-c][1,4]oxazine-2-carboxamide, N-[(2,5-dimethoxyphenyl)methyl]-4,6,7,9-tetrahydro-3-hydroxy-9,9-dimethyl-4-oxo-], 7.00 to 8.70; with `Cc1ccc(CNC(=O)c2nc3n(c(=O)c2O)CCOC3(C)C)cc1F` [Example 248, Pyrimido[2,1-c][1,4]oxazine-2-carboxamide, N-[(3-fluoro-4-methylphenyl)methyl]-4,6,7,9-tetrahydro-3-hydroxy-9,9-dimethyl-4-oxo-], 7.00 to 8.70.
To `Cc1ccc(CNC(=O)c2nc3n(c(=O)c2O)CCOC3(C)C)cc1` [Example 240, Pyrimido[2,1-c][1,4]oxazine-2-carboxamide, 4,6,7,9-tetrahydro-3-hydroxy-9,9-dimethyl-N-[(4-methylphenyl)methyl]-4-oxo-] belongs 7.00 to 8.70; to `CC1(C)OCCn2c1nc(C(=O)NCc1ccc(F)c(Cl)c1)c(O)c2=O` [Example 32, Pyrimido[2,1-c][1,4]oxazine-2-carboxamide, N-[(3-chloro-4-fluorophenyl)methyl]-4,6,7,9-tetrahydro-3-hydroxy-9,9-dimethyl-4-oxo-], 7.00 to 8.70; to `CC1(C)OCCn2c1nc(C(=O)NCc1ccccc1-c1cccnc1)c(O)c2=O` [Example 150, Pyrimido[2,1-c][1,4]oxazine-2-carboxamide, 4,6,7,9-tetrahydro-3-hydroxy-9,9-dimethyl-4-oxo-N-[[2-(3-pyridinyl)phenyl]methyl]-], 7.00 to 8.70.
In the case of `CC1(C)OCCn2c1nc(C(=O)NCc1ccc(F)cc1-c1ccn[nH]1)c(O)c2=O` [Example 85, Pyrimido[2,1-c][1,4]oxazine-2-carboxamide, N-[[4-fluoro-2-(1H-pyrazol-5-yl)phenyl]methyl]-4,6,7,9-tetrahydro-3-hydroxy-9,9-dimethyl-4-oxo-], the negative-log IC50 (pIC50) was 7.00 to 8.70.
To `CC1(C)OCCn2c1nc(C(=O)NCc1cccc(Cl)c1)c(O)c2=O` [Example 226, Pyrimido[2,1-c][1,4]oxazine-2-carboxamide, N-[(3-chlorophenyl)methyl]-4,6,7,9-tetrahydro-3-hydroxy-9,9-dimethyl-4-oxo-] belongs 7.00 to 8.70; to `CC1(C)OCCn2c1nc(C(=O)NCc1ccccc1N1CCOCC1)c(O)c2=O` [Example 260, Pyrimido[2,1-c][1,4]oxazine-2-carboxamide, 4,6,7,9-tetrahydro-3-hydroxy-9,9-dimethyl-N-[[2-(4-morpholinyl)phenyl]methyl]-4-oxo-], 7.00 to 8.70; to `CC1(C)OCCn2c1nc(C(=O)NCc1ccc(F)cc1C(F)(F)F)c(O)c2=O` [Example 246, Pyrimido[2,1-c][1,4]oxazine-2-carboxamide, N-[[4-fluoro-2-(trifluoromethyl)phenyl]methyl]-4,6,7,9-tetrahydro-3-hydroxy-9,9-dimethyl-4-oxo-], 7.00 to 8.70.
To `CN(C)CCNC(=O)c1cccc(-c2ccccc2CNC(=O)c2nc3n(c(=O)c2O)CCOC3(C)C)c1` [Example 195, Pyrimido[2,1-c][1,4]oxazine-2-carboxamide, N-[[3′-[[[2-(dimethylamino)ethyl]amino]carbonyl][1,1′-bzphenyl]-2-yl]methyl]-4,6,7,9-tetrahydro-3-hydroxy-9,9-dimethyl-4-oxo-] belongs 7.00 to 8.70; to `COC(=O)c1cc(F)ccc1CNC(=O)c1nc2n(c(=O)c1O)CCOC2(C)C` [Example 47, Benzoic acid, 5-fluoro-2-[[[(4,6,7,9-tetrahydro-3-hydroxy-9,9-dimethyl-4-oxopyrimido[2,1-c][1,4]oxazin-2-yl)carbonyl]amino]methyl]-, methyl ester], 7.00 to 8.70; to `CC1(C)OCCn2c1nc(C(=O)NCc1ccc(Cl)cn1)c(O)c2=O` [Example 29, N-((5-Chloropyridin-2-yl)methyl)-3-hydroxy-9,9-dimethyl-4-oxo-4,6,7,9-tetrahydropyrimido[2,1-c][1,4]oxazine-2-carboxamide], 7.00 to 8.70.
With `CCC1(CC)OCCn2c1nc(C(=O)NCc1ccc(F)cc1S(=O)(=O)N(C)C)c(O)c2=O` [Example 205, Pyrimido[2,1-c][1,4]oxazine-2-carboxamide, N-[[2-[(dimethylamino)sulfonyl]-4-fluorophenyl]methyl]-9,9-diethyl-4,6,7,9-tetrahydro-3-hydroxy-4-oxo-] the figure was 7.00 to 8.70.
In the case of `CC1(C)OCCn2c1nc(C(=O)NCc1c(F)cccc1Cl)c(O)c2=O` [Example 273, Pyrimido[2,1-c][1,4]oxazine-2-carboxamide, N-[(2-chloro-6-fluorophenyl)methyl]-4,6,7,9-tetrahydro-3-hydroxy-9,9-dimethyl-4-oxo-], the pIC50 is 7.00 to 8.70.
For the compound `CC1(C)OCCn2c1nc(C(=O)NCc1ccc(F)cc1C(=O)N1CCOCC1)c(O)c2=O` [Example 52, Pyrimido[2,1-c][1,4]oxazine-2-carboxamide, N-[[4-fluoro-2-(4-morpholinylcarbonyl)phenyl]methyl]-4,6,7,9-tetrahydro-3-hydroxy-9,9-dimethyl-4-oxo-], the pIC50 is 7.00 to 8.70.
In the case of `CC1(C)OCCn2c1nc(C(=O)NCc1ccccn1)c(O)c2=O` [Example 141, Pyrimido[2,1-c][1,4]oxazine-2-carboxamide, 4,6,7,9-tetrahydro-3-hydroxy-9,9-dimethyl-4-oxo-N-(2-pyridinylmethyl)-], the pIC50 is 7.00 to 8.70.
With `CC1(C)OCCn2c1nc(C(=O)NCc1ccc(F)cc1S(N)(=O)=O)c(O)c2=O` [Example 110, Pyrimido[2,1-c][1,4]oxazine-2-carboxamide, N-[[2-(aminosulfonyl)-4-fluorophenyl]methyl]-4,6,7,9-tetrahydro-3-hydroxy-9,9-dimethyl-4-oxo-] the figure was 7.00 to 8.70; with `CS(=N)c1cc(F)ccc1CNC(=O)c1nc2n(c(=O)c1O)CCOC2(C)C` (stereo not shown) [Example 103, Pyrimido[2,1-c][1,4]oxazine-2-carboxamide, N-[[4-fluoro-2-(S-methylsulfinimidoyl)phenyl]methyl]-4,6,7,9-tetrahydro-3-hydroxy-9,9-dimethyl-4-oxo-], 7.00 to 8.70.
With `CC1(C)OCCn2c1nc(C(=O)NCc1ccc(F)cc1N1CCCCC1=O)c(O)c2=O` [Example 121, Pyrimido[2,1-c][1,4]oxazine-2-carboxamide, N-[[4-fluoro-2-(2-oxo-1-piperidinyl)phenyl]methyl]-4,6,7,9-tetrahydro-3-hydroxy-9,9-dimethyl-4-oxo-] the figure was 7.00 to 8.70.
On to `CC1(C)OCCn2c1nc(C(=O)NCc1ccc(C#N)cc1)c(O)c2=O` [Example 265, Pyrimido[2,1-c][1,4]oxazine-2-carboxamide, N-[(4-cyanophenyl)methyl]-4,6,7,9-tetrahydro-3-hydroxy-9,9-dimethyl-4-oxo-], for which the pIC50 was 7.00 to 8.70.
